What all share (assay type): cell-based, human
For data set [1], the system named is iPSC-RPE. The data set is described as follows: Trans-epithelial electrical resistance (TER), tight junction integrity. The settings on record: fully mature iPSC-RPE; for TER resistance: minimum threshold 400 Ωcm^2, DMSO around 1100. On the procedure: Different techniques were used to study RPE morphologic features.
At this point the trans-epithelial electrical resistance (TER) was assayed to confirm the quality of differentiation and examine the effect of drugs on tight junction integrity. The minimum threshold of 400 Ωcm^2 for epithelial resistance per unit area is used to determine good batches of differentiation.
Trans-epithelial electrical resistance (TER) is a measure of the tightness of the monolayer. The tighter the monolayer, the healthier are the cells in the monolayer. A cutoff of 400 ohm*cm^2 was used to exclude cells with low TER. […] The range specifies 90% of the data.

For data set [2], the system named is iPSC-RPE. Kind of data set: Single-cell RNA sequencing. The settings on record: AGN 193109-, endo-IWR-1- and DMSO-treated cells. On the procedure:
Single-cell RNA sequencing was performed to confirm that the compounds changed cell transcriptome.

The test system of data set [3] is iPSC-RPE. The data set is described as follows: Transmission electron microscopy, fine intracellular structures. The following applies: TEM, AGN 193109 0.2 μM, endo-IWR-1 4 uM. The protocol: Finally, transmission electron microscopy (TEM) was used to detect fine morphological alterations, whereas scanning electron microscopy (SEM) was essential to study modifications in apical processes structures. […] In DMSO-treated iPSC-RPE we found both types of apical processes, petal and finger-like.
AGN 193109 was used at 0.2 μM and endo-IWR-1 at 4 uM. Both drugs were dissolved in DMSO, so that the final concentration of DMSO was not more than 0.1%. The final concentration of DMSO control was 0.1%. The compounds were added in RPE maturation medium until cells were mature. Gross cell morphology was also analyzed (FIGS. 20B, 20D, and 20F, left image) to detect possible abnormalities. Fine intracellular structures were examined for alterations with transmission electron microscopy (TEM, FIGS. 20B, 20D, and 20F, right image).

For data set [4], the system named is iPSC-RPE. Kind of data set: Testing different concentrations of AGN 193109 and endo-IWR-1 to reproduce macular (P1), central (P2) and peripheral (P3) cells. The protocol: FIG. 13. Testing different concentrations of AGN 193109 and endo-IWR-1 to reproduce macular (P1), central (P2) and peripheral (P3) cells. A range of concentrations of AGN 193109 and endo-IWR-1 were tested that could be used to reproduce macular, central and peripheral RPE populations (labeled P1, P2 and P3, respectively). Population 1 (P1, macular cells) can be reproduced with […] of AGN 193109. Population 3 (P3, peripheral) can be reproduced with 1 mM-4 mM of endo-IWR-1. A gradient of AGN 193109 and endo-IWR-1 could be used to replicate human RPE population 2 (P2, central)—central RPE cells. In one example, this can be reproduced with 25 nM-50 nM of AGN 193109 and 0.1 mM-0.5 mM of endo-IWR-1. Boxplots relative to DMSO, P1, P2 and P3 are plotted on the left side of the graph as a reference for cell size comparison. Five concentrations were tested for AGN 193109 and endo-IWR-1.

The subject of data set [5] is iPSC-RPE. The data set is described as follows: High-content compound screening on iPSC-RPE, cell area quantified with REShAPE. The settings on record: 384-well plates, 30 days in RPE maturation medium. On the procedure:
Screening of Compound Library and Imaging: 115 drugs targeting various developmental pathways or cytoskeletal stressors were selected to form a new developmental library of compounds. The drugs are either activators or inhibitors of various signaling pathways and target proteins at different levels of the signaling cascades. For each drug, an initial concentration was selected, and adjustments made to the concentration of each drug. The assays were performed on iPSC-derived committed RPE. For every drug, the concentration was lowered if toxicity was detected or increased if there was no evident effect on cell morphology in comparison to control. The list of compounds tested can be found in Table 1. The high-content screening was performed in 384-well plates (cat #6057300, Perkin Elmer) using a range of 3 different concentrations (3×, 1×, 0.3×). […]
Morphometric Analysis Using REShAPE: The binary segmentation produced by the CNN algorithm was transferred to REShAPE for cell shape analysis. […] For every cell in a field of view that has been successfully segmented, REShAPE provide quantification of more than 25 different shape metrics. […] In addition, the software created images of segmented cells for every metric analyzed, where every cell is color-coded according to the raw values (FIG. 4). The color-coded images display the location of the cells analyzed. […]

“Also recorded” adds a separate entry of the source.

Consider `Cc1ccc(C2=CCC(C)(C)c3ccc(C#Cc4ccc(C(=O)O)cc4)cc32)cc1` [AGN 193109, 4-[2-[5,6-Dihydro-5,5-dimethyl-8-(4-methylphenyl)-2-naphthalenyl]ethynyl]-benzoic acid], for which, in the data set on iPSC-RPE [1], the “effect on epithelial barrier / tight junction integrity” value is given as “maintained tight junction integrity” and the TER resistance is reported as ~1600 Ωcm^2. Also, in the data set on iPSC-RPE [2], the “single cell transcriptome clustering” value is on record as “cluster separately from each other”. Besides, in the data set with iPSC-RPE [3], the fine intracellular structures entry is “no fine intracellular structure defects were identified; also recorded: nor did they affect gross or fine cell morphology”. Moreover, the “concentration that reproduces population 2 (P2, central)” value in the data set on iPSC-RPE [4] (AGN 193109 combined with endo-IWR-1) was in the range of 25 to 50 nM. Further, in the data set on iPSC-RPE [4] (Table 6), the “concentration used to reproduce P1 (macular)” value lay in the range of 0.1 to 0.2 µM. Also, the “effect on iPSC-RPE cell area / cell size distribution in the screening” value in the data set on iPSC-RPE [5] is “reproduces macular and peripheral cell sizes in vitro, respectively”.

Consider `O=C(Nc1cccc2cccnc12)c1ccc(N2C(=O)C3C4C=CC(C4)C3C2=O)cc1` (stereo not drawn) [ENDO-1-IWR, 4-(1,3,3a,4,7,7a-Hexahydro-1,3-dioxo-4,7-methano-2H-isoindol-2-yl)-N-8-quinolinyl-Benzamide], for which, in the data set on iPSC-RPE [1], the “effect on epithelial barrier / tight junction integrity” value is recorded as “maintained tight junction integrity” and the TER resistance is on record as ~1200 Ωcm^2. Also, in the data set on iPSC-RPE [2], the “single cell transcriptome clustering” value is “cluster separately from each other”. Moreover, in the data set on iPSC-RPE [3], the fine intracellular structures result was “no fine intracellular structure defects were identified”. The fine intracellular structures result with iPSC-RPE [3] (listed as endo-IWR-1) is reported as “nor did they affect gross or fine cell morphology”. In addition, the “concentration used to reproduce P3 (peripheral)” value in the data set on iPSC-RPE [4] (Table 6) was 1 to 4 µM. Further, the “concentration used to reproduce P2 (central)” value in the data set on iPSC-RPE [4] (Table 6, ENDO-1-IWR combined with AGN 193109) was in the range of 0.1 to 0.2 µM. Moreover, the “effect on iPSC-RPE cell area / cell size distribution in the screening” value with iPSC-RPE [5] was “reproduces macular and peripheral cell sizes in vitro, respectively”.

(Values after patent US20240261474A1, “BIODEGRADABLE TISSUE SCAFFOLD WITH SECONDARY MATRIX TO HOST WEAKLY ADHERENT CELLS” (THE U.S.A., as represented by the Secretary, Department of …, priority 2021, published 2024).)
